Values joined by “and” are separate entries in the source; they are usually repeats but may differ in a detail not shown here. Equal entries are not always repeated. “Also recorded” adds a separate entry of the source. Where two headings read alike, the source gives them in different places.

These results are taken from paper PMC5963757, “Expression, purification, and inhibition profile of dihydrofolate reductase from the filarial nematode Wuchereria bancrofti” (PLoS ONE, 2018).

Experiment [1] addresses T1, BmDHFR (Brugia malayi, UniProt A0A4E9FIQ4). Put plainly: biochemical. Particulars: for inhibition of BmDHFR (in words): pH 6.0, 25°C. Type of experiment: biochemical. On the procedure:
(§1) Compounds (-)-epicatechin, (-)-epicatechin gallate, and vitexin were tested as inhibitors of WbDHFR and BmDHFR. The compounds (-)-epicatechin and (-)-epicatechin gallate were synthesized as described previously. […] Disappearance of DHF and NADPH was observed by measuring absorbance at 340 nm to measure the DHFR activity in a SpectraMax M3 microplate reader. […] All experiments were completed in triplicate.
A linear equation was fitted to the data at each substrate concentration. […] The KI values for BmDHFR in Table 1 were obtained using the Cheng-Prusoff Equation [18]. […] Inhibitor structures are shown in supporting information (S2 Fig).

Experiment [2] addresses T1, BmDHFR. Also on record: method as in PMID 26669020. The conditions noted are these: computational prediction, cited from earlier work.
In experiment [3] the target is T2, WbDHFR (Wuchereria bancrofti, UniProt J9F199). Type of experiment: biochemical. The conditions noted are these: for inhibition of WbDHFR (in words): pH 6.0, 25°C. On the procedure: as §1
Experiment [4] deals with T2, WbDHFR. Briefly: Michaelis-Menten kinetics of WbDHFR, KM for DHF. Type of experiment: biochemical. Particulars: pH 6.0, 25°C, 100 μM NADPH, MTEN buffer; ± S.D. As for the experimental part: To characterize DHFR enzymatic activity, we measured absorbance at 340 nm to follow the disappearance of DHF substrate and NADPH cofactor over time. The KM of WbDHFR for DHF was determined over a concentration range of 3.8 to 195 μM DHF, at 25°C, in MTEN buffer (50 mM 2-morpholinoethane sulphonic acid (MES), 25 mM Tris, 25 mM ethanolamine, 100 mM NaCl, and 1mM DTT) at pH 6.0. Initial velocity was plotted as a function of DHF concentration using KaleidaGraph and the Michaelis-Menten equation was fitted to the data. Catalytic activities of WbDHFR and BmDHFR were determined at various pH values (5.5–9.0) in MTEN buffer. The MTEN buffer used for all the reported assays has essentially a constant ionic strength at 0.15 over the pH range for which pH values were measured. Initial velocity was plotted as a function of pH using Excel.
Fig 2 Representative Michaelis-Menten curve. The conditions in the experimental wells (200 μL) were 100 μM NADPH, 12.4 nM WbDHFR in 1 X MTEN buffer at pH 6.0 with DHF concentrations ranging from 0 to 195 μM. The Michaelis-Menten equation was fitted to the data using KaleidaGraph. The Michaelis-Menten constant for DHF was determined by averaging values from fitting three separate data sets and found to be 3.7 ± 2.0 μM (S.D.).

The target of experiment [5] is T1, BmDHFR. Particulars: read-out: KM previously determined for BmDHFR; cited from earlier work.
For experiment [6], the target named is T1, BmDHFR. Also on record: method as in PMID 27544923. The conditions noted are these: read-out: IC50 BmDHFR found previously; cited from earlier work.
The mark [7] stands for this setting: pH 6.0, 100 μM NADPH, 50 μM DHF, 40 nM BmDHFR, average of triplicates ± S.D., read-out: IC50 BmDHFR.
The mark [8] stands for this setting: read-out: predicted KI against BmDHFR.
Where [9] appears, read: IC50 BmDHFR, pH 6.0, 100 μM NADPH, 50 μM DHF, 40 nM BmDHFR, average of triplicates ± S.D.
The mark [10] stands for this setting: IC50 against BmDHFR Average, average of three trials.
Setting [11] is: IC50 against BmDHFR Trial 1, individual trial.
Where [12] appears, read: IC50 against BmDHFR Trial 2, individual trial.
Where [13] appears, read: IC50 against BmDHFR Trial 3, individual trial.
Where [14] appears, read: average of three trials, read-out: IC50 against BmDHFR Average.
Where [15] appears, read: individual trial, read-out: IC50 against BmDHFR Trial 1.
The mark [16] stands for this setting: individual trial, read-out: IC50 against BmDHFR Trial 2.
Setting [17] is: obtained using the Cheng-Prusoff Equation, upper limit for tight-binding inhibitors, read-out: KI BmDHFR.

Take `Oc1cc(O)c2c(c1)O[C@H](c1ccc(O)c(O)c1)[C@H](O)C2` [(-)-Epicatechin, (-)-epicatechin]: in experiment [1] (setting [7]), the IC50 was greater than 2500 µM. The “inhibition of BmDHFR (in words)” value in experiment [1] is given as “did not observe inhibition; also recorded: neither compound showed any inhibitory activity”. Further, in experiment [2] (setting [8]), the Ki is 76 µM. In experiment [3], the “inhibition of WbDHFR (in words)” value is “did not observe inhibition; also recorded: neither compound showed any inhibitory activity”.

In experiment [1], `Nc1nc(N)c2nc(CNc3ccc(C(=O)N[C@@H](CCC(=O)O)C(=O)O)cc3)cnc2n1` [Aminopterin, aminopterin] gave a Ki of less than 0.0017 µM. Further, the IC50 came out at 0.0075 ± 0.0003 µM in experiment [1] (setting [9]); 0.00755 µM in experiment [1] (setting [10]); 0.0072 µM in experiment [1] (setting [11]); 0.0076 µM in experiment [1] (setting [12]); 0.00784 µM in experiment [1] (setting [13]). For the same molecule, the “inhibition of WbDHFR (in words)” value in experiment [3] is listed as “inhibit”.

`Nc1nc(=O)c2c([nH]1)NCC(CNc1ccc(C(=O)N[C@@H](CCC(=O)O)C(=O)O)cc1)=N2` [DHF, dihydrofolate]: the Km in experiment [4] was 3.7 ± 2 µM; in experiment [5], 14.7 ± 3.6 µM.

Turning to `CN(Cc1cnc2nc(N)nc(N)c2n1)c1ccc(C(=O)N[C@@H](CCC(=O)O)C(=O)O)cc1` [Methotrexate, methotrexate], the “inhibition of WbDHFR (in words)” value in experiment [3] is “inhibit”.

For the molecule `CCc1nc(N)nc(N)c1-c1ccc(Cl)cc1` [Pyrimethamine, pyrimethamine], the IC50 in experiment [1] (setting [14]) was 16 µM; in experiment [1] (setting [15]) it was 16.4 µM; in experiment [1] (setting [16]), 21.8 µM; in experiment [1] (individual trial, read-out: IC50 against BmDHFR Trial 3), 8.7 µM; in experiment [1] (setting [7]) it was 15.6 µM and 16 µM; in experiment [6], 109 ± 34 µM. Also, the Ki in experiment [1] (setting [17]) amounted to 3.6 ± 1.5 µM. In addition, the “inhibition of WbDHFR (in words)” value in experiment [3] is given as “inhibit”.

`Cc1nc2ccc(CN(C)c3ccc(C(=O)N[C@@H](CCC(=O)O)C(=O)O)s3)cc2c(=O)[nH]1` [Raltitrexed, raltitrexed]: the IC50 in experiment [1] (setting [14]) stood at 7.3 µM; in experiment [1] (setting [15]) it was 7.1 µM; in experiment [1] (setting [16]), 6.83 µM; in experiment [1] (setting [7]), 7.3 ± 0.2 µM. The Ki in experiment [1] (setting [17]) amounted to 1.6 ± 0.04 µM. For the same molecule, in experiment [3], the “inhibition of WbDHFR (in words)” value is “inhibit”.

On to `COc1cc(Cc2cnc(N)nc2N)cc(OC)c1OC` [Trimethoprim, trimethoprim], for which the results for the Ki in experiment [1] and in experiment [2] (setting [8]) were 15 ± 3 µM and 11 µM, respectively. Moreover, the IC50 in experiment [1] (setting [9]) was 65 ± 13 µM; in experiment [1] (setting [10]), 64.7 µM; in experiment [1] (setting [11]), 80.4 µM; in experiment [1] (setting [12]) it was 61.1 µM; in experiment [1] (setting [13]), 48.9 µM. Moreover, in experiment [3], the “inhibition of WbDHFR (in words)” value is reported as “inhibit”.

Regarding `O=c1cc(-c2ccc(O)cc2)oc2c([C@@H]3O[C@H](CO)[C@@H](O)[C@H](O)[C@H]3O)c(O)cc(O)c12` [Vitexin, vitexin], the IC50 in experiment [1] (setting [9]) is greater than 240 µM. In experiment [1], the “inhibition of BmDHFR (in words)” value is “did not observe any inhibition”. The Ki in experiment [2] (read-out: predicted inhibitor of BmDHFR) is 0.465 µM. Besides, the “inhibition of WbDHFR (in words)” value in experiment [3] is reported as “did not observe inhibition”.

For (-)-epicatechin gallate, the IC50 is greater than 1000 µM in experiment [1] (setting [7]) and greater than 1000 µM in experiment [3] (pH 6.0, 100 μM NADPH, 50 μM DHF, 12.1 nM WbDHFR, average of triplicates ± S.D., read-out: IC50 WbDHFR). In experiment [1], the “inhibition of BmDHFR (in words)” value is on record as “did not observe inhibition; also recorded: neither compound showed any inhibitory activity”. In addition, in experiment [2] (setting [8]), the Ki was 48 µM. Besides, the “inhibition of WbDHFR (in words)” value in experiment [3] was “did not observe inhibition; also recorded: neither compound showed any inhibitory activity”.
